How the values were obtained:
[1] = molecular target: T1, soluble epoxide hydrolase (sEH) (Homo sapiens, UniProt P34913); experiment: sEH-H activity assay (fluorogenic substrate PHOME); format: biochemical; conditions: for sEH LE: ligand efficiency calculated from IC50; for IC50: mean±standard deviation of three independent experiments
T1 construct: made in house; host or cells: E. coli BL21 (DE3)
T1 sequence (P34913 1-555): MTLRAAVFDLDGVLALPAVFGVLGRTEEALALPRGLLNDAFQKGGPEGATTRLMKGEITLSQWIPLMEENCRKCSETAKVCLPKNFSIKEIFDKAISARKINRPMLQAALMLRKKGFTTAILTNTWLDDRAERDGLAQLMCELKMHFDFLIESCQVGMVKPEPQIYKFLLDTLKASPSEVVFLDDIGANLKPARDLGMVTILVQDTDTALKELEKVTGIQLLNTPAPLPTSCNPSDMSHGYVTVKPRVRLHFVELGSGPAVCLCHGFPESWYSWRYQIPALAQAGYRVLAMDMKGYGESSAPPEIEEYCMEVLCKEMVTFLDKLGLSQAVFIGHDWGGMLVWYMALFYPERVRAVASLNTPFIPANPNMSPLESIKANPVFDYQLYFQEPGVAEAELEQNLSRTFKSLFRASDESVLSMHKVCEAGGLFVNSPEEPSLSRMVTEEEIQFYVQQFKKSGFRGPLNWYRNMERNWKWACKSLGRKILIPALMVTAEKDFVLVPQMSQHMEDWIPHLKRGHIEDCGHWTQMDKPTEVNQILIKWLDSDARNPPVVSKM
Procedure: (§1) For hit validation, we employed secondary assays with orthogonal readouts to confirm fragment activities. Biochemical activity assays were chosen for the enzymes sEH, LTA4H, and 5‐LOX. […] RXRα and FXR modulation was assessed in cell‐based hybrid reporter gene assays. All ten compounds were tested at a single concentration of 500 μM in the sEH and LTA4H activity assays and with a concentration of 100 μM on 5‐LOX, RXRα, and FXR. Fragments showing an inhibition greater than 50 % (sEH‐H and LTA4H) or greater than 70 % (5‐LOX) as well as the hits determined in the DSF experiments were further characterized in full concentration‐response curves between 0.1 and 1000 μM. […] As alternative cell‐free assay we employed isothermal titration calorimetry (ITC) to determine binding affinity of the fragments towards the LBDs of both nuclear receptors. ITC was performed with a protein concentration of 50 μM and compound concentrations of 250 μM.
(§2) The 10 fragments showing dual activity in the DSF experiments were validated by functional assay screening with a fixed concentration of 500 µM in case of sEH-H and LTA4H, 100 µM in case of 5-LOX and 30 µM, 10 µM and 5 µM in case of FXR and […]
(§3) % (5-LOX) as well as the hits determined in the DSF experiments were further measured with concentrations between 1000 µM and 0.1 µM (sEH-H and LTA4H) and between 300 µM and 1 µM (5-LOX). The sEH and LTA4H activity assays were performed as triplicate and repeated 3 times. The 5-LOX activity assay was performed with one point per concentration and repeated 3 times Raw data was first analyzed in Microsoft Office Excel (2013), before IC50 curves were plotted and further analyzed using GraphPad Prism 7 and GraphPad Prism 8 for the shown graphs .
The eight approved drugs were measured in the orthogonal assay systems analogous to the fragments. The approved drugs were […]
For the sEH-H and LTA4H, they were measured as triplicate in concentrations between 1000 µM and 1 µM and each measurement was repeated three times. For the 5-LOX they were measured as single point measurement in three different experiments with concentrations between 300 µM and 1 µM. For […]
Raw data was processed according to the fragments.
The sEH-H activity assay was performed adapted from Hahn et al.5 and Lukin et al.6. In short 1 µl of compound dilution in DMSO or pure DMSO (for the positive and negative control) was placed in a black 96-well plate (Thermo Scientific™ Nunc™ F96 MicroWell™ Black Polystyrene Plate) and then 89 µl of protein-mix or buffer mix (without protein as negative control) were added and the mixture was incubated for 30 min at room temperature. 10 µl of 0.6 mM 3-phenyl-cyano(6-methoxy-2-naphthalenyl)methylester-2-oxiraneacetic acid (PHOME) were added to every well. The Plate was measured every minute for 45 min. Final concentration per well was 3 nM sEH-Fl, 0.001 % Triton X-100, 25 mM Bis-tris, 0.1 mg/ml BSA, pH = 7.0, 1.6% DMSO […]

5‐lipoxygenase (5‐LOX) = molecular target: T2, 5‐lipoxygenase (5‐LOX) (Homo sapiens, UniProt P09917); experiment: 5-LOX activity assay (HPLC detection of product formation); format: biochemical; conditions: for 5‐LOX LE: ligand efficiency calculated from IC50; for IC50: mean±standard deviation of three independent experiments
T2 construct: made in house; host or cells: E. coli BL21 (DE3)
T2 sequence (P09917 1-674): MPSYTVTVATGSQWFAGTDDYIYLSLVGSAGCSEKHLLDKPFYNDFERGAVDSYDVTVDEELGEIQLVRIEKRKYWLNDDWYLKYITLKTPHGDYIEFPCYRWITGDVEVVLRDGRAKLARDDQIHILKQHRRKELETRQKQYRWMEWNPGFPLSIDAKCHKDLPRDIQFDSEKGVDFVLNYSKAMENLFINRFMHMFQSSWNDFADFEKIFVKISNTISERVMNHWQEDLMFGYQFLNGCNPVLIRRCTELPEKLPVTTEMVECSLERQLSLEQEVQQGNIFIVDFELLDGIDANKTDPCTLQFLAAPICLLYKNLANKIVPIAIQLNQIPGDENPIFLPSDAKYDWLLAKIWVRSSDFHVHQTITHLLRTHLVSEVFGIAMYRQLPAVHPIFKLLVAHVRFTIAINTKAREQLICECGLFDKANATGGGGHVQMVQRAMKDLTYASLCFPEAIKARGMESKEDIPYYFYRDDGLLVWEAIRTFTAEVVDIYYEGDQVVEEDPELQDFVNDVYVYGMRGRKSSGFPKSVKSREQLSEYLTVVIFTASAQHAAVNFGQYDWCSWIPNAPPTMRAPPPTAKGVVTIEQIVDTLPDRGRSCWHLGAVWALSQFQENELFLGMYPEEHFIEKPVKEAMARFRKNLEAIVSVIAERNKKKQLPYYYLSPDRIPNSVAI
Procedure: as §1, §2, §3
The eight approved drugs were measured in the orthogonal assay systems analogous to the fragments. […]
For the 5-LOX they […]
were measured as single point measurement in three different experiments with concentrations between 300 µM and 1 µM. For […]
Raw data was processed according to the fragments. […]

Row | sEH LE [1] | IC50 [1] | 5‐LOX LE (5‐lipoxygenase (5‐LOX)) | IC50 (5‐lipoxygenase (5‐LOX)) | SMILES
1 | 0.35 kcal/mol | 135 ± 9.1 µM | 0.42 kcal/mol | 21.2 ± 7.3 µM | Cc1cc(=O)n(-c2ccc(C)c(C)c2)[nH]1 [Compound 2]
2 | <0.3 kcal/mol | > 300 µM | – | – | CCCCOc1cc(C(=O)OC)ccc1N [Compound 3]
3 | – | 151 ± 5.8 µM | – | – | Oc1ccc(Cc2ccccc2)cc1 [Compound 4]
4 | – | – | 0.64 kcal/mol | 19.9 ± 2.4 µM | Oc1ccc2cc[nH]c2c1 [Compound 5]
5 | – | 56.6 ± 5.4 µM | – | 118 ± 45.1 µM | CCN(Cc1ccccc1)c1ccccc1 [Compound 7]
6 | 0.33 kcal/mol | 141 ± 34.1 µM | 0.44 kcal/mol | 6.5 ± 2.2 µM | Clc1ccc2c(c1)Nc1ccccc1CC2 [Compound 8]
7 | 0.36 kcal/mol | 108 ± 11 µM | 0.38 kcal/mol | 64.6 ± 26.4 µM | Oc1ccc(-c2ccc(F)cc2F)cc1 [Compound 9]
8 | 0.33 kcal/mol | 120 ± 22.4 µM | 0.36 kcal/mol | 54.3 ± 19.7 µM | Fc1ccc(-c2c[nH]c3ccccc23)cc1 [Compound 10]

Row | SMILES | sEH LE [1] | IC50 [1] | 5‐LOX LE (5‐lipoxygenase (5‐LOX)) | IC50 (5‐lipoxygenase (5‐LOX))
9 | Cc1ccccc1C(=O)Nc1ccccc1 [Compound 6] | 0.31 kcal/mol | 226 ± 18.5 µM | – | –

From article PMC8049054, “Systematic Assessment of Fragment Identification for Multitarget Drug Design” (Chemmedchem, 2021)
